Results from patent US20070066483A1, “Plant Nourishing” (priority 2004, published 2007).

System: carnations
Experiment: Preservation of cut carnations in vases of distilled water with one additive each
Type: in vivo
Conditions: one cut carnation per vase, one teaspoon of additive in 1 cup distilled water; for order in which the flowers collapsed: collapsed = flower fell to a side of the stem
Protocol: The materials in the experiment used included seven vases; one cutting knife; one teaspoon each of lemon-lime soda, sugar, aspirin, house bleach, vitamins, a sports drink, including citric acid, potassium, sodium, sugar and water, eight cups of warm distilled water, and seven fresh carnations Each of the seven vases were filled with 1 cup of distilled water. One teaspoon of each additive was added to its own separate vase of distilled water. One vase only contained distilled water because it was used as the control group. Each carnation was cut on the end at a slant. […] Referring to FIG. 3, the conditions of each flower were recorded after every 24-hour period on a scale from “1” to “10.” Scores between “7” to “10” are “good,” scores between “4” to “6” are “fair,” and scores between “0” to “3” are poor. […] A flower was “collapsed” when it decayed to a point where the flower 14 fell to a side of the stem 18. Aspirin is recommended to preserve flowers by many florists because it lowers the PH level of water, making it more acidic. Acid helps water move more easily up the tubes in a flower's stem 18. However, some florists argue that aspirin can damage flowers, which this experiment supported. Bleach was used in the experiment because bleach kills bacteria, which is harmful to flowers. However, the bleach and water solution only preserved its flower for ten out of nineteen days. […] The carnation with vitamins and water solution may have collapsed because of bacteria growth that developed in the vase. The control group (water only) preserved its carnation for an average length of thirteen days. […] All three solutions contained sugar, a vital substance needed by plants to carry out photosynthesis. The flower with the lemon lime soda lasted for sixteen days, and the flower with sugar lasted for eighteen days. The sports drink and water was the solution that preserved its flower the longest, approximately twenty-nine days.

Compound | order in which the flowers collapsed | time the flower was preserved (until collapse) (condition recorded every 24 hours)
CC(=O)Oc1ccccc1C(=O)O [aspirin] | first flowers to collapse | 
sugar | last three flowers to remain fresh | eighteen
